One data set concerns L1210 tumor cells. The experiment in a line: Experiment-3: antitumor efficacy in L1210 tumor-bearing CDF1 mice (ILS). Type of data set: in vivo. The note with it: for Weight Changes: first day to seventh day. On the procedure:
In the following test, antitumor efficacy studies were performed using 8-9 weeks old female CDF1 mice, the average weight of the animal is 20-25 grams (The experimental animals were purchased from Vital River Laboratory Animal Technology Co. Ltd.). L1210 tumor cells (about 10^5 cells per mouse) were inoculated intraperitoneally. The fluorine-containing water-soluble platinum complexes were used to treat the tumor-bearing animals and the efficacy was compared with the clinical platinum antitumor drugs. […] Drugs were administered intraperitoneally on day 1 and day 4 after tumor cell transplantation. The number of experimental animals in each group was 6.
The increase in life span (ILS) is calculated as follows:
Wherein, St=the weighted median survival time of treated animals; Su=the weighted median survival time of untreated animals

The nature of a further data set: physchem. The note with it: buffer, pH 7.
The nature of data set [1]: Experiment-2: stability, half-life in phosphate buffer (PBS) pH 7 at room temperature. The conditions noted are these: phosphate buffer (PBS) pH 7, room temperature.
The nature of data set [2]: Experiment-1: solubility in water at room temperature.
For data set [3] the following is noted: background data of clinical drugs; cited from earlier work.
For data set [4] the following is noted: buffer, pH 7.
The mark [5] stands for this setting: 1.25 mg/Kg i.p. day 1 and day 4.

Where two headings read alike, the source gives them in different places.

`N.N.[Cl][Pt][Cl]` [Cisplatin, cisplatin]: the ILS in the data set on L1210 tumor cells (setting [5]) amounted to 36%; with L1210 tumor cells (2.5 mg/Kg i.p. day 1 and day 4), 100%. For the same compound, the “Survival Animals on Day 42” value with L1210 tumor cells (setting [5]) is recorded as 0/6; in the data set on L1210 tumor cells (2.5 mg/Kg i.p. day 1 and day 4) it was 0/6; in the data set with L1210 tumor cells (5.0 mg/Kg i.p. day 1 and day 4), 3/6.

In “physchem”, `[NH2][Pt]1([NH2])[O]C(=O)C(F)(CCOC2O[C@H](CO)[C@@H](O)[C@H](O)[C@H]2O)C(=O)[O]1` (stereo partly drawn) [Example 3, diamine Pt (II) (1-O-D-glucoside-propane-3-fluoro-3,3-dicarboxylate)] gave a half-life of 52 h.

Compound “cis-[trans-(1R,2R)-diaminocyclohexane] Pt (II) (1-O-D-glucoside-propane-3-fluoro-3,3-dicarboxylate) [Example 1]” returned a half-life in data set [1] of 44 h.

`O=C1[O][Pt]2([NH][C@@H]3CCCC[C@H]3[NH]2)[O]C1=O` [Oxaliplatin, oxaliplatin] returned a half-life in data set [1] of 24 h.

Compound `O=C1[O][Pt]([NH]C2CC2)([NH]C2CC2)[O]C(=O)C1(F)CCOC1O[C@H](CO)[C@@H](O)[C@H](O)[C@H]1O` (stereo partly drawn) [Example 17, dicyclopropylamino platinum (II) (1-O-D-glucoside-propane-3-fluoro-3,3-dicarboxylate)] had a half-life in the data set “physchem” of 62 h.

On to `O=C1[O][Pt]2([NH][C@@H]3CCCC[C@H]3[NH]2)[O]C(=O)C1(F)COC1O[C@H](CO)[C@@H](O)[C@H](O)[C@H]1O` (stereo partly drawn) [Example 23, cis-[trans-(1R,2R)-diaminocyclohexane]platinum (II) (1-O-D-glucoside-ethane-2-fluoro-2,2-dicarboxylate)], for which the half-life in “physchem” is 89 h.

For `N.N.O=C([O-])C1(C(=O)[O-])CCC1.[Pt+2]` [Carboplatin, carboplatin], the ILS in the data set on L1210 tumor cells (20 mg/Kg i.p. day 1 and day 4) was 10%; in the data set with L1210 tumor cells (40 mg/Kg i.p. day 1 and day 4), 24%; with L1210 tumor cells (80 mg/Kg i.p. day 1 and day 4), 55%. The “Survival Animals on Day 42” value is recorded as 0/6 with L1210 tumor cells (20 mg/Kg i.p. day 1 and day 4); 0/6 in the data set with L1210 tumor cells (40 mg/Kg i.p. day 1 and day 4); 0/6 with L1210 tumor cells (80 mg/Kg i.p. day 1 and day 4). The “Weight Changes” value in the data set on L1210 tumor cells (20 mg/Kg i.p. day 1 and day 4) is “+0 g”; in the data set with L1210 tumor cells (40 mg/Kg i.p. day 1 and day 4), -0.3 g; in the data set on L1210 tumor cells (80 mg/Kg i.p. day 1 and day 4) it was -1.2 g. In addition, the solubility in data set [2] was 17.0 mg/1 mL H2O. Moreover, the “Water Solubility” value in data set [3] is 17.0 mg/mL.

Regarding `[NH2][Pt]1([NH2])[O]C(=O)C(F)(COC2O[C@H](CO)[C@@H](O)[C@H](O)[C@H]2O)C(=O)[O]1` (stereo partly drawn) [Example 24, diamine platinum (II) (1-O-D-glucoside-ethane-2-fluoro-2,2-dicarboxylate)], the half-life in “physchem” was 73 h.

In data set [4], “cis-[trans-(1R,2R)-diaminocyclohexane] Pt (II) (1-O-D-mannoside-propane-3-fluoro-3,3-dicarboxylate) [Example 9]” showed a half-life of 48 h.

As a reminder, the ILS is how much longer treated animals lived than controls. The half-life is the time needed for the level to fall by half in the phase considered. Higher therefore signals slow decline.

(Values after patent US20150011740A1, “FLUORINE-CONTAINING WATER SOLUBLE PLATINUM COMPLEXES FOR TUMOR TREATMENT AND PROCESS OF PREPARING SAME” (GUDUI BIOPHARMA TECHNOLOGY INC., priority 2011, published 2015).)
